The source of these data is patent US6432880B1, “Substituted 2-phenylpyridines as herbicides” (BASF Aktiengesellschaft, priority 1999, dated 2002).

As usually defined, the melting point is the temperature of the solid-liquid transition. Turning to `CS(=O)(=O)Oc1cnc(-c2cc(O)c(Cl)cc2F)c(Cl)c1` [Ia.362, 2-(4-chloro-2-fluoro-5-hydroxyphenyl)-3-chloro-5-(methylsulfonyl-oxy) pyridine], the melting point is 132 to 133 °C.
`COc1cc(-c2ncc(OS(C)(=O)=O)cc2Cl)c(F)cc1Cl` [Ia.363, 2-(4-chloro-2-fluoro-5-methoxyphenyl)-3-chloro-5-(methylsulfonyl-oxy)pyridine] showed a melting point of 118 to 120 °C.
